Data from US8377981B2, “CBI derivatives subject to reductive activation” (The Scripps Research Institute, priority 2007, dated 2013).
Read-outs that look alike come from different tables or passages of the source.

What was measured:
[1] = test system: L1210 cell line (mouse leukemia); assay: Cytotoxic activity, L1210 cell line; format: cell-based
Experimental: (§1) The O-amino phenol derivatives bearing the N—O prodrug linkages and the various N-acyl substituents were assayed for cytotoxic activity alongside the parent drugs CBI-TMI (2) (Boger, D. L.; Yun, W. J. Am. Chem. Soc. 1994, 116, 7996) and mitomycin C (Boger, D. L.; et al. Bioorg. Med. Chem. Lett. 1991, 1, 115; Boger, D. L.; et al. Bioorg. Med. Chem. 1995, 3, 1429) as well as the two control standards 9 and 10 incapable of free phenol release. Three cell lines were examined including a standard L1210 cell line (mouse leukemia) as well as the mitomycin-sensitive (H460, expresses high levels of DT-Diaphorase) and resistant (H596, lacks DT-Diaphorase) non small cell lung cancer (NSCLC) cell lines, with results shown in the Table below.

[2] = test system: H596 (mitomycin-resistant, lacks DT-Diaphorase) non small cell lung cancer (NSCLC) cell line; assay: Cytotoxic activity, H596 cell line; format: cell-based
Experimental: as §1

[3] = test system: H460 (mitomycin-sensitive, expresses high levels of DT-Diaphorase) non small cell lung cancer (NSCLC) cell line; assay: Cytotoxic activity, H460 cell line; format: cell-based
Experimental: as §1

[4] = test system: L1210 murine leukemia implanted i.p. into DBA/2J mice; assay: In vivo antitumor activity, L1210 i.p. in DBA/2J mice (30% DMSO in 0.1% glucose); set-up: species or system mouse; conditions: for Surviving Mice: 365 days; for weight loss of treated animals: days 30-100, highest dosing
Description: The prodrug 8 was examined for in vivo efficacy alongside the parent drug 3 in a standard antitumor model enlisting L1210 murine leukemia implanted i.p. into DBA/2J mice. This model has been reported to respond well to the parent drugs of related compounds (Li, L. H.; et al. Invest. New Drugs 1991, 9, 137) and is a system that collaborators through the years have used to assess an extensive series of (+)-CBI-indole2 analogues. Although not published, these latter studies provided the foundation on which examination of 8 is based.
With use the dose range (10-100 μg/kg) and the dosing schedule (administered three times i.p. on days 1, 5, and 9) found suitable for related parent drugs including (+)-CBI-indole2 (3) (Boger, D. L.; et al. Bioorg. Med. Chem. Lett. 1991, 1, 115; Boger, D. L.; et al. Bioorg. Med. Chem. 1995, 3, 1429), the prodrug 8 was examined as is shown in the Table below.
DBA/2J mice were purchased from Jackson Laboratory (Bar Harbor, Me.) and housed in the animal facility at The Scripps Research Institute. L1210 tumor cells, originally isolated from DBA/2 mice, were cultured in DMEM medium containing 5% fetal calf serum. For tumor implantation, DBA/2J mice were i.p. injected with 1×10^5 L1210 cells at day 0.
Compounds 3 and 8 were formulated with 30% DMSO plus 0.1% glucose solution. Treatment doses of drugs (0, 10, 30, 100 µg/kg wt. of animal) were i.p. injected consecutively on day 1, 5 and 9. The study was performed with six mice per group. Tumor growth in the peritoneal cavity was monitored daily and the death of animals was recorded. If necessary, weights of animals were measured once a week. To date this monitoring of the animals has lasted 365 days.

[5] = test system: L1210 murine leukemia implanted i.p. into DBA/2J mice; assay: In vivo antitumor activity, second site (neat DMSO, terminated after 120 days); set-up: species or system mouse; conditions: for Surviving Mice: still living after 120 days
Experimental: Confirming these observations, an analogous antitumor assessment was carried out independently at a second site utilizing a slightly different and harsher protocol for drug administration (neat DMSO vs 30% DMSO in 0.1% glucose).
In the above Table, the second column is the dose in mg/kg of body weight of the animal that is administered i.p. (into the intraperitoneal cavity) on days 1, 5, and 9. The surviving mice are the number of mice that are still living after 120 days and the experiment was then terminated.
An analogous study with 10 mice per group was performed at the University of Kansas with the distinction that the compounds were administered in neat DMSO (0, 10, 30, 60, 100 µg/kg wt. of animal) and the study was terminated after 120 days.

[6] = Chemical stability and reactivity of the N-acyl O-amino phenol derivatives; format: physicochemical; conditions: for stability to acidic conditions: TFA-CH2Cl2, 4 N HCl-EtOAc
[7] = Mus musculus, L1210, read-out: IC50 (nM) L1210, natural enantiomer series, CBI-TMI derivatives
[8] = unnatural enantiomer series, CBI-TMI derivatives, read-out: IC50 (nM) L1210
[9] = Homo sapiens, NCI-H596, read-out: IC50 (nM) H596
[10] = unnatural enantiomer series, CBI-TMI derivatives, read-out: IC50 (nM) H596
[11] = Homo sapiens, NCI-H460, read-out: IC50 (nM) H460
[12] = unnatural enantiomer series, CBI-TMI derivatives, read-out: IC50 (nM) H460
[13] = unnatural enantiomer series, CBI-indole2 derivatives, read-out: IC50 (nM) L1210
[14] = Homo sapiens, NCI-H596, natural enantiomer series, CBI-indole2 derivatives, read-out: IC50 (nM) H596
[15] = unnatural enantiomer series, CBI-indole2 derivatives, read-out: IC50 (nM) H596
[16] = 10 μg/kg i.p. days 1, 5, 9, neat DMSO
[17] = 30 μg/kg i.p. days 1, 5, 9, neat DMSO
[18] = 60 μg/kg i.p. days 1, 5, 9, neat DMSO
[19] = 100 μg/kg i.p. days 1, 5, 9, neat DMSO
[20] = unnatural enantiomer series, CBI-indole2 derivatives, read-out: IC50 (nM) H460

COc1cc2cc(C(=O)N3C[C@@H](CCl)c4c3cc(O)c3ccccc43)[nH]c2c(OC)c1OC [Compound 2, seco-CBI-TMI, reference compound]
IC50 [1, 7]: 0.04 nM
IC50 [1, 8]: 5 nM
fold lower sensitivity of H596 than H460 ([2]; H596 versus H460): 10 fold
IC50 [2, 9]: 5 nM
IC50 [2, 10]: 300 nM
IC50 [3, 11]: 0.5 nM
IC50 [3, 12]: 50 nM

O=C(Nc1ccc2[nH]c(C(=O)N3C[C@@H](CCl)c4c3cc(O)c3ccccc43)cc2c1)c1cc2ccccc2[nH]1 [Compound 3, seco-CBI-indole2, reference compound]
IC50 ([1]; Mus musculus, L1210, natural enantiomer series, CBI-indole2 derivatives, read-out: IC50 (nM) L1210): 0.03 nM
IC50 [1, 13]: 0.7 nM
IC50 [2, 14]: 2 nM
IC50 [2, 15]: 40 nM
Mean Survival Period (MSP) ([4]; 10 μg/kg i.p. days 1, 5, 9): 34 days
Treated/Control (MSP × 100) ([4]; 10 μg/kg i.p. days 1, 5, 9): 170
Surviving Mice ([4]; 10 μg/kg i.p. days 1, 5, 9): 0/6
Mean Survival Period (MSP) ([4]; 30 μg/kg i.p. days 1, 5, 9): >115 days
Treated/Control (MSP × 100) ([4]; 30 μg/kg i.p. days 1, 5, 9): >580
Surviving Mice ([4]; 30 μg/kg i.p. days 1, 5, 9): 1/6
Mean Survival Period (MSP) ([4]; 100 μg/kg i.p. days 1, 5, 9): 125 days
Treated/Control (MSP × 100) ([4]; 100 μg/kg i.p. days 1, 5, 9): 625
Surviving Mice ([4]; 100 μg/kg i.p. days 1, 5, 9): 0/6
weight loss of treated animals [4]: weight loss that was evident
fate of surviving mice at day 90 ([4]; prolonged management beyond day 90): eventually expired due to drug administration related complications
Mean Survival Period (MSP) [5, 16]: >60 days
Treated/Control (MSP × 100) [5, 16]: >271
Surviving Mice ([5]; 10 μg/kg): 3/10
Mean Survival Period (MSP) [5, 17]: >65 days
Treated/Control (MSP × 100) [5, 17]: >295
Surviving Mice ([5]; 30 μg/kg): 3/10
Mean Survival Period (MSP) [5, 18]: >71 days
Treated/Control (MSP × 100) [5, 18]: >324
Surviving Mice ([5]; 60 μg/kg): 3/10
Mean Survival Period (MSP) [5, 19]: 11 days
Treated/Control (MSP × 100) [5, 19]: 52
Surviving Mice ([5]; 100 μg/kg): 0/10
IC50 ([3]; Homo sapiens, NCI-H460, natural enantiomer series, CBI-indole2 derivatives, read-out: IC50 (nM) H460): 0.2 nM
IC50 [3, 20]: 6 nM

COc1cc2cc(C(=O)N3C[C@@H](CCl)c4c3cc(ONC(C)=O)c3ccccc43)[nH]c2c(OC)c1OC [Compound 5]
IC50 [1, 7]: 0.3 nM
IC50 [2, 9]: 7 nM
stability on long term storage [6]: withstanding even long term storage effectively
IC50 [3, 11]: 0.7 nM

COc1cc2cc(C(=O)N3C[C@@H](CCl)c4c3cc(ON(C(C)=O)C(=O)OC(C)(C)C)c3ccccc43)[nH]c2c(OC)c1OC [Compound 6]
IC50 [1, 7]: 0.2 nM
IC50 [2, 9]: 5 nM
stability to acidic conditions [6]: surprisingly robust to acidic conditions
IC50 [3, 11]: 0.6 nM

COc1cc2cc(C(=O)N3CC(CCl)c4c3cc(ON3C(=O)c5ccccc5C3=O)c3ccccc43)[nH]c2c(OC)c1OC (stereo not shown) [Compound 7]
IC50 [1, 8]: 60 nM
IC50 [2, 10]: 6000 nM
IC50 [3, 12]: 600 nM

COc1cc2cc(C(=O)N3C[C@@H](CCl)c4c3cc(ON3C(=O)c5ccccc5C3=O)c3ccccc43)[nH]c2c(OC)c1OC [Compound 7]
IC50 [1, 7]: 0.06 nM
IC50 [2, 9]: 5 nM
stability to acidic conditions [6]: surprisingly robust to acidic conditions
stability on long term storage [6]: noticeably deteriorating over time
IC50 [3, 11]: 0.5 nM

CC(C)(C)OC(=O)NOc1cc2c(c3ccccc13)[C@H](CCl)CN2C(=O)c1cc2cc(NC(=O)c3cc4ccccc4[nH]3)ccc2[nH]1 [Compound 8]
IC50 ([1]; Mus musculus, L1210, read-out: IC50 (nM) L1210, natural enantiomer series, CBI-indole2 derivatives): 0.05 nM
IC50 ([1]; Mus musculus, L1210, text range over L1210 and H460, natural enantiomer): 0.03 to 0.2 nM
potency compared with CBI-indole2 (3) ([1]; in each cell line examined): essentially equipotent
times more active than mitomycin C ([1]; natural enantiomer): 100-1000 times
fold less active than the natural enantiomer ([1]; unnatural enantiomer of prodrug 8): 10-100 fold
IC50 [2, 14]: 4 nM
Mean Survival Period (MSP) ([4]; 10 μg/kg i.p. days 1, 5, 9): 25 days
Treated/Control (MSP × 100) ([4]; 10 μg/kg i.p. days 1, 5, 9): 120
Surviving Mice ([4]; 10 μg/kg i.p. days 1, 5, 9): 0/6
Mean Survival Period (MSP) ([4]; 30 μg/kg i.p. days 1, 5, 9): >145 days
Treated/Control (MSP × 100) ([4]; 30 μg/kg i.p. days 1, 5, 9): >730
Surviving Mice ([4]; 30 μg/kg i.p. days 1, 5, 9): 2/6
Mean Survival Period (MSP) ([4]; 100 μg/kg i.p. days 1, 5, 9): >310 days
Treated/Control (MSP × 100) ([4]; 100 μg/kg i.p. days 1, 5, 9): >1550
Surviving Mice ([4]; 100 μg/kg i.p. days 1, 5, 9): 5/6
weight loss of treated animals [4]: little or no weight loss
Mean Survival Period (MSP) [5, 16]: >46 days
Treated/Control (MSP × 100) [5, 16]: >210
Surviving Mice ([5]; 10 μg/kg): 2/10
Mean Survival Period (MSP) [5, 17]: >51 days
Treated/Control (MSP × 100) [5, 17]: >232
Surviving Mice ([5]; 30 μg/kg): 2/10
Mean Survival Period (MSP) [5, 18]: >93 days
Treated/Control (MSP × 100) [5, 18]: >425
Surviving Mice ([5]; 60 μg/kg): 7/10
Mean Survival Period (MSP) [5, 19]: >63 days
Treated/Control (MSP × 100) [5, 19]: >288
Surviving Mice ([5]; 100 μg/kg): 3/10
efficacy compared with free drug 3 ([5]; deaths due to the disease, tumor counts, tumor volume): comparable or superior in terms of reducing deaths due to the disease, tumor counts, and tumor volume
toxicity of administration compared with free drug 3 ([5]; neat DMSO, 120 days): significantly less toxic than free drug 3
IC50 [3, 11]: 0.3 nM

CO[C@@]12[C@H](COC(N)=O)C3=C(C(=O)C(C)=C(N)C3=O)N1C[C@@H]1N[C@@H]12 [mitomycin C, reference compound]
IC50 ([1]; natural enantiomer series, CBI-TMI derivatives, read-out: IC50 (nM) L1210): 40 nM
IC50 ([1]; natural enantiomer series, CBI-indole2 derivatives, read-out: IC50 (nM) L1210): 40 nM
IC50 ([1]; text range over L1210 and H460, read-out: IC50): 20 to 40 nM
IC50 [1, 8]: 40 nM
IC50 [1, 13]: 40 nM
IC50 ([2]; mitomycin-resistant H596 cell line, read-out: IC50): 5000 nM
IC50 ([2]; natural enantiomer series, CBI-TMI derivatives, read-out: IC50 (nM) H596): 5000 nM
IC50 ([2]; natural enantiomer series, CBI-indole2 derivatives, read-out: IC50 (nM) H596): 5000 nM
IC50 [2, 10]: 5000 nM
IC50 [2, 15]: 5000 nM
IC50 ([3]; natural enantiomer series, CBI-TMI derivatives, read-out: IC50 (nM) H460): 20 nM
IC50 ([3]; natural enantiomer series, CBI-indole2 derivatives, read-out: IC50 (nM) H460): 20 nM
IC50 [3, 12]: 20 nM
IC50 [3, 20]: 20 nM
